Structures can show the parent of a compound that is named as a salt. Where two headings read alike, the source gives them in different places.
Key:
[1] = system: dogs, 24 hours after a two-step coronary ligature; conditions: quinidine, cited from earlier work
[2] = system: CaCl2 arrhythmia of the rat; assay: CaCl2 arrhythmia of the rat (antifibrillatory effect); conditions: ratio LD50 iv./ED50 iv.
Experimental: The data is analyzed by the Probit regression analysis with a confidence interval of p=0.05 (values in parentheses).
Q is the ratio of LD50 iv. /ED50 iv. to determine therapeutic breadth range.

[3] = in vivo; conditions: rat, iv, i.v. tail vein, Wistar rats, parentheses = confidence interval p=0.05, read-out: LD50 i.v., acute toxicity of the rat
Experimental: The data were analyzed by the Probit regression analysis with a confidence interval of p=0.05 (values in parentheses).

[4] = system: dogs, 24 hours after a two-step coronary ligature; assay: two-step coronary ligature on the dog (Harris model); format: in vivo; conditions: for total number of heart contractions/min. / ectopic contractions in percent/min.: average value; for effective action in minutes (duration of action), Harris dog: i.v. at the effective dose, dogs, 24 hours after two-step coronary ligature
Experimental: Dose is the effective dose in mg/kg, as well as the duration of action in minutes in dogs, 24 hours after a two-step coronary ligature.

Molecule	Q = LD50/ED50 (therapeutic breadth) [2]	LD50 [3] [mg/kg]	effective action in minutes (duration of action), Harris dog [4] [min]	ectopic contractions in percent/min. ([4]; 5 mins, 0.005 mmol/kg) [percent/min.]	ectopic contractions in percent/min. ([4]; 30 mins, 0.005 mmol/kg) [percent/min.]	ectopic contractions in percent/min. ([4]; 60 mins, 0.005 mmol/kg) [percent/min.]	ectopic contractions in percent/min. ([4]; 120 mins, 0.005 mmol/kg) [percent/min.]	other results
C=C[C@H]1C[N@@]2CC[C@H]1C[C@@H]2[C@@H](O)c1ccnc2ccc(OC)cc12 [Quinidine]	–	–	–	–	–	–	–	Harris dog effective dose ([1]; i.v., reference [1] Mokler and Arman 1962): 10.0 mg/kg; effective action in minutes (duration of action), Harris dog ([1]; i.v., reference [1]): 15 min; ectopic arrhythmia (in words) ([1]; reference [1]): decrease in the ectopic arrhythmia; total number of heart contractions (in words) ([1]; reference [1]): decrease in the total number of heart contractions
CCN(CC)CCCC(=O)N1c2ccc(Cl)cc2NC(=O)c2ccccc21 [Example 4, 8-Chloro-5-(4-diethylamino-butyryl)-5,10-dihydro-11H-dibenzo(b,e)(1,4)-diazepine-11-one]	1614	71	30	–	–	–	–	total number of heart contractions/min. ([4]; 30 mins., 0.005 mmol/kg): 180 min⁻¹; total number of heart contractions/min. ([4]; 120 mins., 0.005 mmol/kg): 183 min⁻¹
CCN(CC)CCCCCC(=O)N1c2ccc(Cl)cc2NC(=O)c2ccccc21 [Example 6, 8-Chloro-5-(6-diethylamino-capronyl)-5,10-dihydro-11H-dibenzo(b,e)(1,4)-diazepine-11-one]	86	38	60	20	4	37	76	total number of heart contractions/min. ([4]; 5 mins., 0.005 mmol/kg): 170 min⁻¹
CCN(CC)CC(=O)Nc1c(C)cccc1C [Lidocaine, reference compound]	–	–	15	–	–	–	–	ectopic contractions in percent/min. ([4]; 5 mins, 0.02 mmol/kg (5.4 mg/kg)): 34 percent/min.; ectopic contractions in percent/min. ([4]; 30 mins, 0.02 mmol/kg (5.4 mg/kg)): 78 percent/min.; ectopic arrhythmia / ectopy rate (in words) ([4]; dog, Harris): decrease in the ectopic arrhythmia; total number of heart contractions (in words) ([4]; dog, Harris): decrease in the total number of heart contractions
CN(C)CCCCCC(=O)N1c2ccccc2NC(=O)c2ccccc21 [Example 1, 5-(6-Dimethylamino-capronyl)-5,10-dihydro-11H-dibenzo(b,e)(1,4)-diazepine-11-one.HCl]	207	85	60	30	47	54	68	ectopic contractions in percent/min. ([4]; 180 mins, 0.005 mmol/kg): 80 percent/min.
5-(4-Diethylamino-butyryl)-5,10-dihydro-11H-dibenzo(b,e)(1,4)-diazepine-11- one [Example 2]	–	–	–	26	24	75	90	ectopic contractions in percent/min. ([4]; base, 0.005 mmol/kg): 88 percent/min.
O=C1Nc2cc(Cl)ccc2N(C(=O)CCCCCCN2CCOCC2)c2ccccc21 [Example 9, 8-Chloro-5-(7-N-morpholino-enanthoyl)-5,10-dihydro-11H-dibenzo(b,e)(1,4)-diazepine-11-one]	256	41	120	21	38	42	42	total number of heart contractions/min. ([4]; 120 mins., 0.005 mmol/kg): 156 min⁻¹; ectopic contractions in percent/min. ([4]; 180 mins, 0.005 mmol/kg): 73 percent/min.; ectopic contractions in percent/min. ([4]; 300 mins, 0.005 mmol/kg): 79 percent/min.; total number of heart contractions/min. ([4]; 360 mins., 0.005 mmol/kg): 180 min⁻¹; ectopic contractions in percent/min. ([4]; 360 mins, 0.005 mmol/kg): 89 percent/min.
